Values quoted from earlier work, collected in paper PMC3150604 (Journal of medicinal chemistry, 2011).

Molecular target: σ1 receptor
Conditions: read-out: σ1 receptor Ki; literature value ref 46

Ki: 9.39 nM
SMILES: O[C@H]1CCCC[C@@H]1N1CCC(c2ccc(I)s2)CC1 [compound 5, (1S,2S)-2-(4-(5-iodothiophen-2-yl)piperidin-1-yl)cyclohexanol]
